One test has as its system LU65. Nature of the test: Cytotoxicity test with pemetrexed upon addition of each example compound (CellTiter-Glo). It counts as cell-based, human. As to conditions: combination with pemetrexed, LU65 cells, 7 days; maximum value, at the MYT1 inhibitor and pemetrexed concentrations. The method, then:
LU65 (received from human tissue bank (JCRB Cell Bank)) was used in the evaluation of the present invention. LU65 is a lung cancer cell line having a truncated deletion mutation of S82* in RB1 gene (see Nature. 2019 May; 569(7757): 503-508. (Non Patent Literature 22)), in which the function of RB1 is decreased. The cell culture was carried out using RPMI-1640 (manufactured by SIGMA) containing 10% FBS (manufactured by SIGMA).
Each pemetrexed (manufactured by Tokyo Kasei Kogyo Co., Ltd.) and each example compound of each concentration were diluted using a DMSO solution, and 0.04 μL of each of series of dilution and DMSO was added to each well of cell culture plate using Echo 555 Liquid Handler (manufactured by Beckman Coulter Inc.). 1000 LU65 cells ([…]) were added to each well, which was cultured at 37° C. in a 5% CO2 incubator for 7 days. Intracellular ATP level which is a cell survival marker was measured and used in the monitoring of cell number. After culturing, 20 μL of CellTiter-Glo (registered trademark) 2.0 (manufactured by Promega) was added to each well, and the emission intensity was measured using Multimode Plate Reader En Vision (registered trademark) Xcite (manufactured by PerkinElmer). The cell survival rate under each condition was calculated by setting the value obtained by subtracting the luminescence of the cell unseeded well from the luminescence of the DMSO-added well as 100%, and calculating the proportion of a value obtained by subtracting the luminescence of the cell unseeded well from the luminescence detected at each well.
In addition, the cytotoxic activity under each condition was calculated by subtracting the survival rate in a combination of pemetrexed of each treatment concentration and each example compound of each treatment concentration, from 100%.

The target of test [1] is T1, MYT1 protein (Homo sapiens (Human), UniProt Q99640). Briefly: Test for binding to ATP binding site of MYT1 (Kinase Tracer 178 / Eu-Anti-GST antibody TR-FRET). As to conditions: ATP binding site of MYT1, 30 minutes at room temperature. (In general: Time-resolved FRET reads energy transfer from a long-lived donor to a nearby acceptor.)
Test [2] has as its target T1, MYT1 protein. Briefly: MYT1 kinase activity inhibition test (ELISA, phosphorylation of Y15 of CDK1). It counts as biochemical. As to conditions: phosphorylation level of Y15 of CDK1 protein caused by MYT1 protein, 60 minutes. How it is done:
The MYT1 kinase activity inhibitory capacity of each compound was evaluated by evaluating the phosphorylation level of Y15 of CDK1 protein caused by MYT1 protein, by ELISA. The kit of CycLex Weel Kinase Assay/Inhibitor Screening Kit Ver. 3 (manufactured by MBL, CY-1172V3) was used. Using Kinase Buffer, 10 μL of 5 nM MYT1 protein (manufactured by Carna Biosciences, Inc.) was prepared. In addition, 30 μL of 83.3 μM of ATP was prepared using Kinase Buffer. In addition, 10 μL of each compound was diluted to each concentration using Kinase Buffer. 30 μL of ATP was added to the plate of the kit, and thereafter, 10 μL of each compound was added thereto. Further, 10 μL of the diluted MYT1 protein solution was added thereto, and then the mixture was mixed, which was allowed to stand at room temperature for 60 minutes. The reaction solution was removed from each well, and each well was washed using Wash Buffer. After Wash Buffer was removed, 100 μL of HRP conjugated Anti-phospho-tyrosine antibody was added to each well, which was allowed to stand at room temperature for 60 minutes. Thereafter, the reaction solution was removed from each well, and each well was washed using Wash Buffer. After Wash Buffer was removed, 100 μL of Substrate Reagent was added to each well, which was allowed to stand at room temperature for 8 minutes. Thereafter, 100 μL of Stop Solution (1 N sulfuric acid) was added to each well according to the manual. Absorbances at 450 nm and 590 nm were measured using Envision (manufactured by PerkinElmer). The phosphorylation level of CDK1 protein was evaluated for each well by subtracting the absorbance at 590 nm from the absorbance at 450 nm. The inhibition rate of each compound added at each concentration was calculated by setting the signal when the compound was not added as 100% and the signal when MYT1 protein was not added as 0%, and the calculation results of IC50 were shown in Table 4.
On the technique in general: In an ELISA, binding on a coated surface is turned into a signal by an enzyme label.

Structures are written as SMILES. Structures can show the parent of a compound that is named as a salt. A value given as a limit tells only on which side of the number the result lay.

T1 sequence (Q99640 whole entry): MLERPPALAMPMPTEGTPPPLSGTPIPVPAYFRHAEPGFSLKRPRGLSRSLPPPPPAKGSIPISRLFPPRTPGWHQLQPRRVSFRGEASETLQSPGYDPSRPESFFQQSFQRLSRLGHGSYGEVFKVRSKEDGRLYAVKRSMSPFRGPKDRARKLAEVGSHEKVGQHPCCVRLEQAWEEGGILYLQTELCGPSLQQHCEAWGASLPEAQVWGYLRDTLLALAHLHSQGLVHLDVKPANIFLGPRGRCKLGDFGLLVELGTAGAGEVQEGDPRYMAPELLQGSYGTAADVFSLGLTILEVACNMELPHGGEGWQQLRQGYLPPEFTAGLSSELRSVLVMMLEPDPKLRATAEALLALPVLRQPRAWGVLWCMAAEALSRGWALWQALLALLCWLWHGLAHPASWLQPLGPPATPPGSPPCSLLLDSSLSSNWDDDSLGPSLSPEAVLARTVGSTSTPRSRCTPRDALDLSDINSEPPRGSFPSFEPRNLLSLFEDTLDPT

For the molecule `Nc1c(-c2ccc(F)c3[nH]ncc23)c2cc(C3CCC4(CC3)OCCO4)c3ncccc3c2[nH]c1=O.O=C(O)C(F)(F)F` [Compound C101, 3-Amino-6-(1,4-dioxaspiro[4.5]decan-8-yl)-4-(7-fluoro-1H-indazol-4-yl)-1H-1,7-phenanthrolin-2-one 2,2,2-trifluoroacetate], in the test with LU65, the “Bliss Score (Max)” value came to 46% and the “HSA Score (MAX)” value stood at 64%. For the same molecule, at MYT1 protein [1], the IC50 – broadly, the concentration needed to halve the response being measured – stood at 6.1 nM. For the same molecule, half-maximal inhibition on MYT1 protein [2] (IC50) was put at 7.1 nM.

Regarding `Nc1c(-c2ccc(F)c3[nH]ncc23)c2cc(Br)c3ncccc3c2[nH]c1=O` [Compound C1, 3-amino-6-bromo-4-(7-fluoro-1H-indazol-4-yl)-1H-1,7-phenanthrolin-2-one], in the test on LU65, the “Bliss Score (Max)” value is 59% and the “HSA Score (MAX)” value turned out to be 71%. The same molecule came in with a half-inhibitory concentration (IC50) on MYT1 protein [1] of 2 nM. In addition, the IC50 against MYT1 protein [2] is less than 0.17 nM.

As for `N#Cc1cc2c(-c3cccc(O)c3)c(N)c(=O)[nH]c2c2ccccc12` [Compound B7, 3-Amino-4-(3-hydroxyphenyl)-2-oxo-1H-benzo[h]quinoline-6-carbonitrile], the half-inhibitory concentration (IC50) on MYT1 protein [1] came out at 6 nM; at MYT1 protein [2], 5.7 nM.

As to `Cc1ccc(-c2c(N)c(=O)[nH]c3ccc(Cl)cc23)c2cn[nH]c12` [Compound A60, 3-Amino-6-chloro-4-(7-methyl-1H-indazol-4-yl)-1H-quinolin-2-one], the concentration for half-maximal inhibition (IC50) at MYT1 protein [1] is 7 nM; against MYT1 protein [2], 0.55 nM.

Take `Nc1c(-c2ccc(Cl)c3[nH]ncc23)c2cc(Cl)c(OC(F)F)cc2[nH]c1=O` [Compound A30, 3-Amino-6-chloro-4-(7-chloro-1H-indazol-4-yl)-7-(difluoromethoxy)-1H-quinolin-2-one]: the IC50 on MYT1 protein [1] stood at 43 nM; against MYT1 protein [2] it was 0.71 nM.

With `N#Cc1cc2c(-c3ccc(F)c4[nH]ncc34)c(N)c(=O)[nH]c2c2ccccc12` [Compound B26, 3-Amino-4-(7-fluoro-1H-indazol-4-yl)-2-oxo-1H-benzo[h]quinoline-6-carbonitrile], the IC50 on MYT1 protein [1] was 10 nM; against MYT1 protein [2], 0.37 nM.

With `CP(C)(=O)c1cc2c(-c3ccc(F)c4[nH]ncc34)c(N)c(=O)[nH]c2c2ccccc12` [Compound B31, 3-Amino-6-dimethylphosphoryl-4-(7-fluoro-1H-indazol-4-yl)-1H-benzo[h]quinolin-2-one], the IC50 is 19 nM at MYT1 protein [1] and 0.32 nM against MYT1 protein [2].

For `N#C[C@H]1C[C@H](Oc2cc3c(-c4ccc(Cl)c5[nH]ncc45)c(N)c(=O)[nH]c3cc2Cl)C1` [Compound A12, (1r,3r)-3-[[3-Amino-7-chloro-4-(7-chloro-1H-indazol-4-yl)-2-oxo-1H-quinolin-6-yl]oxy]cyclobutane-1-carbonitrile], in the test with LU65, the “Bliss Score (Max)” value is recorded as 61% and the “HSA Score (MAX)” value came out at 70%. Also, the IC50 on MYT1 protein [1] came to 2.6 nM.

In the case of `Cc1cc2c(-c3ccc(F)c4[nH]ncc34)c(N)c(=O)[nH]c2c2ccccc12` [Compound B27, 3-Amino-4-(7-fluoro-1H-indazol-4-yl)-6-methyl-1H-benzo[h]quinolin-2-one], the half-maximal inhibitory concentration (IC50) is 7.3 nM on MYT1 protein [1] and 0.21 nM against MYT1 protein [2].

Consider `Nc1c(-c2cccc(F)c2)c2ccc3ccccc3c2[nH]c1=O` [Compound B50, 3-Amino-4-(3-fluorophenyl)-1H-benzo[h]quinolin-2-one; hydrochloride], for which the values for the concentration for half-maximal inhibition (IC50) on MYT1 protein [1] and against MYT1 protein [2] were 750 nM and 210 nM, respectively.

With `Nc1c(-c2cc(F)cc3[nH]ncc23)c2cc(Cl)ccc2[nH]c1=O` [Compound A56, 3-Amino-6-chloro-4-(6-fluoro-1H-indazol-4-yl)-1H-quinolin-2-one], the IC50 on MYT1 protein [1] came out at 58 nM; against MYT1 protein [2], 1.1 nM.

Consider `Cc1nc2c(-c3ccc(F)c4[nH]ncc34)c(N)c(=O)[nH]c2c2cccnc12` [Compound O1, 3-Amino-4-(7-fluoro-1H-indazol-4-yl)-6-methyl-1H-pyrido[2,3-h][1,5]naphthyridin-2-one], for which, in the test with LU65, the “Bliss Score (Max)” value worked out at 37% and the “HSA Score (MAX)” value is recorded as 44%. Further, the half-maximal inhibitory concentration (IC50) on MYT1 protein [1] was found to be 1.1 nM.

As to `Nc1c(-c2ccc(F)c3[nH]ncc23)c2cc(Cl)c3ccccc3c2[nH]c1=O` [Compound B34, 3-Amino-6-chloro-4-(7-fluoro-1H-indazol-4-yl)-1H-benzo[h]quinolin-2-one], the concentration for half-maximal inhibition (IC50) on MYT1 protein [1] came out at 33 nM; at MYT1 protein [2], 0.86 nM.

On to `Nc1c(-c2cccc3[nH]ncc23)c2cc(Cl)c3ncccc3c2[nH]c1=O` [Compound C79, 3-Amino-6-chloro-4-(1H-indazol-4-yl)-1H-1,7-phenanthrolin-2-one], for which the IC50 on MYT1 protein [1] was 11 nM; against MYT1 protein [2], 0.3 nM.

Take `Nc1c(-c2cccc(O)c2)c2ccc3ncccc3c2[nH]c1=O` [Compound C184, 3-Amino-4-(3-hydroxyphenyl)-1H-1,7-phenanthrolin-2-one; hydrobromide]: the values for the IC50 on MYT1 protein [1] and at MYT1 protein [2] were 10 nM and less than 4.6 nM, respectively.

Regarding `Nc1c(-c2ccc(F)c3[nH]ncc23)c2cc(C3CC3)c3ccsc3c2[nH]c1=O` [Compound L3, 7-Amino-4-cyclopropyl-6-(7-fluoro-1H-indazol-4-yl)-9H-thieno[3,2-h]quinolin-8-one], in the test with LU65, the “Bliss Score (Max)” value is listed as 51% and the “HSA Score (MAX)” value is reported as 61%. Moreover, the IC50 on MYT1 protein [1] worked out at 2.3 nM.

With `Nc1c(-c2ccc(F)c3[nH]ncc23)c2cc(C3CC3)c3scnc3c2[nH]c1=O` [Compound N2, 7-Amino-4-cyclopropyl-6-(7-fluoro-1H-indazol-4-yl)-9H-[1,3]thiazolo[5,4-h]quinolin-8-one], in the test with LU65, the “Bliss Score (Max)” value is listed as 50% and the “HSA Score (MAX)” value is 57%. At MYT1 protein [1], this molecule displayed a concentration for half-maximal inhibition (IC50) of 3.3 nM.

Take `Nc1c(-c2ccc(Cl)c3[nH]ncc23)c2cc(Cl)c(Br)cc2[nH]c1=O` [Compound A27, 3-Amino-7-bromo-6-chloro-4-(7-chloro-1H-indazol-4-yl)-1H-quinolin-2-one]: the results for the IC50 at MYT1 protein [1] and against MYT1 protein [2] were 40 nM and 0.52 nM, respectively.

On to `Nc1c(-c2ccc(F)c3[nH]ncc23)c2cc(Cl)ccc2[nH]c1=O` [Compound A57, 3-Amino-6-chloro-4-(7-fluoro-1H-indazol-4-yl)-1H-quinolin-2-one], for which the half-inhibitory concentration (IC50) on MYT1 protein [1] is 13 nM; against MYT1 protein [2] it was 0.61 nM.

For the molecule `Nc1c(-c2cccc(O)c2)c2ccc3ccccc3c2[nH]c1=O` [Compound B2, 3-Amino-4-(3-hydroxyphenyl)-1H-benzo[h]quinolin-2-one], the IC50 was found to be 22 nM at MYT1 protein [1] and 4 nM at MYT1 protein [2].

`Cc1nc2c(C)cc3c(-c4ccc(F)c5[nH]ncc45)c(N)c(=O)[nH]c3c2s1` [Compound K4, 7-Amino-6-(7-fluoro-1H-indazol-4-yl)-2,4-dimethyl-9H-[1,3]thiazolo[4,5-h]quinolin-8-one]: in the test with LU65, the “Bliss Score (Max)” value came to 56% and the “HSA Score (MAX)” value is listed as 66%. This molecule yielded an IC50 on MYT1 protein [1] of 2.7 nM.

On to `Nc1c(-c2cccc3[nH]ncc23)c2ccc3ncccc3c2[nH]c1=O` [Compound C186, 3-Amino-4-(1H-indazol-4-yl)-1H-1,7-phenanthrolin-2-one], for which the IC50 amounted to 6.8 nM on MYT1 protein [1] and 3.9 nM against MYT1 protein [2].

Consider `Nc1c(-c2ccc(C(F)(F)F)c3[nH]ncc23)c2cc(Cl)ccc2[nH]c1=O` [Compound A61, 3-Amino-6-chloro-4-[7-(trifluoromethyl)-1H-indazol-4-yl]-1H-quinolin-2-one], for which the IC50 at MYT1 protein [1] turned out to be 140 nM; at MYT1 protein [2], 5 nM.

`Nc1c(-c2ccc(F)c3[nH]ncc23)c2cc(C3CC3)c3cnsc3c2[nH]c1=O` [Compound H3, 7-Amino-4-cyclopropyl-6-(7-fluoro-1H-indazol-4-yl)-9H-[1,2]thiazolo[4,5-h]quinolin-8-one]: in the test on LU65, the “Bliss Score (Max)” value is listed as 61% and the “HSA Score (MAX)” value came out at 61%. The IC50 at MYT1 protein [1] was determined as 2.7 nM.

The record behind these values is US20260062412A1, “NITROGEN-CONTAINING HETEROCYCLIC COMPOUND HAVING MYT1 INHIBITORY ACTIVITY” (CHUGAI SEIYAKU KABUSHIKI KAISHA, priority 2023, published 2026).
